Data on 13 molecules can be found in patent US6495559B2, “NPY Y5 receptor antagonists” (Merck & Co., Inc., priority 1998, dated 2002).

Data set [1] relates to mice. The experiment in a line: Observation of abnormal behavior after oral dosing in mice. It counts as in vivo. As to conditions: 100 mg/kg p.o., during 24 hour after dosing.
The subject of data set [2] is rats. Put plainly: Observation of abnormal behavior after oral dosing in rats. As to conditions: 100 mg/kg p.o., during 24 hour after dosing. It counts as in vivo. On the procedure: Compound 100 was orally administered 1 hour prior to the ICV-injection of bPP in satiated male Sprague-Dawley rats. […] Thus, Compound 100 has a potent in vivo Y5 antagonistic activity without causing any abnormal behavior.

Data set [3] concerns bPP-induced food intake. Put plainly: Bovine pancreatic polypeptide (bPP)-induced food intake in Sprague-Dawley rats. It counts as in vivo. As to conditions: 1 hour prior to ICV bPP. On the procedure:
Male Sprague-Dawley rats aged 7 weeks (Charles River, Japan) were maintained under the controlled temperature (23±3° C.), humidity (55±15%) and light-dark cycle (7:00-19:00 light on). Rats were housed individually with ad libitum access food (CE-2, Clea Japan) and tap water. Rats were anesthetized with sodium pentobarbital (50 mg/kg, i.p., Dainabot, Japan). A permanent stainless steel guide cannula for intracerebroventricular (ICV) injection (21 gauge, 10 mm long) was stereotaxically implanted into the right lateral ventricle. The stereotaxic coordinates used were as follows: 0.9 mm posterior and 1.2 mm lateral to the bregma and 1.5 mm ventral to the brain surface. Animals were allowed at least 6-day recovery postoperatively before the start of feeding experiment. The day before the experiment, they were handled and underwent mock injection, and nocturnal food intake was measured. Rats which ate more than 15 g during the night before the experiment were used for the following experiment. Test compounds were suspended in 0.5% methylcellulose and orally administered by gavage. Administration of test compounds usually began at 10:00. Dosing volume was 5 ml/kg. […] Two hour post-injection food intake was measured for each rat. […]

Each structure is given as a SMILES string.

As a reminder, the melting point is the temperature, or range, at which the solid turns liquid.

As to `CS(=O)(=O)N1CC2(CCN(C(=O)Nc3cnc(-c4ccccc4)cn3)CC2)c2ccccc21` [Compound 100, 1 -Methanesulfonyl-N-(5-phenyl-2-pyrazinyl)spiro[indoline-3,4′-piperidine]-1′-carboxamide], the abnormal behavior result in data set [1] and in data set [2] was “did not cause any abnormal behavior” in each case. In data set [3] (1, 3, 10 and 30 mg/kg orally, satiated male rats, two hour post-injection food intake), the bPP-induced food intake entry was “suppressed bPP-induced food intake in a dose-dependent manner”. The same molecule came in with a minimum effective dose in data set [3] (oral, suppression of bPP-induced food intake) of 3 mg/kg.
`CCS(=O)(=O)N1CC2(CCN(C(=O)Nc3cnc(-c4ncns4)cn3)CC2)c2ccccc21` [Compound 153, 1-ethylsulfonyl-N-[5-(1,2,4-thiadiazol-5-yl)-2-pyrazinyl]spiro[indoline-3,4′-piperidine]-1′-carboxamide]: the melting point was in the range of 211 to 214 °C.
The molecule `CCS(=O)(=O)N1CC2(CCN(C(=O)Nc3cnc(-c4nncs4)cn3)CC2)c2ccc(F)cc21` [Compound 154, 1-ethylsulfonyl-6-fluoro-N-[5-(1,3,4-thiadiazol-2-yl)-2-pyrazinyl]spiro[indoline-3,4′-piperidine]-1′-carboxamide] came in with a melting point of 228 to 230 °C.
The same measure, in the same setting: the figure for `CCS(=O)(=O)N1CC2(CCN(C(=O)Nc3cnc(-c4nncs4)cn3)CC2)c2cc(F)ccc21` [Compound 155, 1-ethylsulfonyl-5-fluoro-N-[5-(1,3,4-thiadiazol-2-yl)-2-pyrazinyl]spiro[indoline-3,4′-piperidine]-1′-carboxamide] is 223 to 224 °C; for `CS(=O)(=O)N1CC2(CCN(C(=O)Nc3cnc(-c4ccccc4)cn3)CC2)c2cc(F)ccc21` [Compound 202, 5-fluoro-1-methylsulfonyl-N-(5-phenyl-2-pyrazinyl)spiro[indoline-3,4′-piperidine]-1′-carboxamide] it is 215.5 to 215.8 °C.
As to `CCS(=O)(=O)N1CC2(CCN(C(=O)Nc3cn(-c4cccc(F)c4)cn3)CC2)c2ccccc21` [Compound 203, 1-ethylsulfonyl-N-[1-(3-fluorophenyl)imidazol-4-yl]spiro[indoline-3,4′-piperidine]-1′-carboxamide], the melting point was in the range of 200 to 202 °C.
For `CCS(=O)(=O)N1CC2(CCN(C(=O)Nc3cn(-c4ccccc4F)cn3)CC2)c2ccccc21` [Compound 204, 1-ethylsulfonyl-N-[1-(2-fluorophenyl)imidazol-4-yl]spiro[indoline-3,4′-piperidine]-1′-carboxamide], the melting point lay in the range of 180 to 181.5 °C.
Regarding `CC(=O)c1ccc(NC(=O)N2CCC3(CC2)CN(S(N)(=O)=O)c2ccccc23)cc1` [Compound 300, N-(4-acetylphenyl)-1-sulfamoylspiro[indoline-3,4′-piperidine]-1′-carboxamide], the melting point fell in the range of 233 to 236 °C.
On the same count and under the same terms, the figure for `NS(=O)(=O)N1CC2(CCN(C(=O)Nc3nnc(-c4ccccc4)s3)CC2)c2ccccc21` [Compound 400, N-(5-phenyl-1,3,4-thiadiazol-2-yl)-1-sulfamoylspiro[indoline-3,4′-piperidine]-1′-carboxamide] is > 300 °C.
Molecule `NS(=O)(=O)N1CC2(CCN(C(=O)Nc3cc(-c4ccccc4)no3)CC2)c2ccccc21` [Compound 402, N-(3-phenylisoxazol-5-yl)-1-sulfamoylspiro[indoline-3,4′-piperidine]-1′-carboxamide] came in with a melting point of 226 to 227 °C.
In the case of `CC(=O)N1CC2(CCN(C(=O)Nc3nnc(-c4ccccc4)s3)CC2)c2ccccc21` [Compound 600, 1-Acetyl-N-(5-phenyl-1,3,4-thiadiazol-2-yl)spiro[indoline-3,4′-piperidine]-1′-carboxamide], the melting point was 260 °C.
Turning to `CN(C)C(=O)N1CC2(CCN(C(=O)Nc3nnc(-c4ccccc4)s3)CC2)c2ccccc21` [Compound 800, 1-Dimethylcarbamoyl-N-(5-phenyl-1,3,4-thiadiazol-2-yl)spiro[indoline-3,4′-piperidine]-1′-carboxamide], the melting point is 267 °C.
For `CS(=O)(=O)N1CC2(CCN(C(=O)Nc3cc(-c4ccccc4)no3)CC2)c2cccnc21` [Compound 1402, 7-aza-N-(3-phenyl-5-isoxazolyl)-1-methylsulfonylspiro[indoline-3,4′-piperidine]-1′-carboxamide], the melting point lay within 211 to 212 °C.
